# Assays:
# [1] = Fluorescent hydrogel phase glucose responsive assay (10 mM PBS, pH 7.4, 310 K)
# [2] = Affinity electrochemistry - cyclic voltammetry glucose responsive assay (10 mM PBS, pH 7.4, 298 K); settings: for Applied potential / Current response: FIM 0.5 mM, reduction process
# Description: Affinity electrochemistry measurements were made using a Metrohm Autolab PGSTAT101 potentiostat with a BIDSC-FET interface and screen-printed electrodes DRP-200BT. Data collection and analysis were performed using Nova software by Metrohm Autolab. Further analysis and processing were performed in Microsoft Excel. Measurements obtained at 298 K and at pH 7.4 unless otherwise stated.
# Separate samples containing a mixture of GBM, FIM and D-glucose at various concentrations in 10 mM PBS were prepared. 50 μL of each sample was pipetted onto the surface of the screen-printed electrode and the cyclic voltammogram acquired using the CV staircase protocol within the Nova software, using the following settings: Start potential at −0.4 V, upper vertex potential at 0.6 V, lower vertex potential at −0.4 V, stop potential at −0.39756 V, number of scans=3, scan rate at 0.1 V/s and Step at 0.00244 V. The data for each voltammogram was exported into Microsoft excel, processed and compared to give the glucose responsive electrochemical results.
# Changes in applied potential and current response were monitored using the reduction process observed during the cyclic voltammogram. Measurements obtained at 298 K and pH 7.4 in 10 mM PBS medium.
# [3] = Fluorescent solution phase glucose responsive assay (pH 7.4, 298 K)
# Description: Fluorescence spectroscopy was performed on either a HORIBA Duetta or BMG Labtech CLARIOstar plus plate reader. Emission spectra were obtained using the appropriate excitation wavelength and at a temperature of either 298 or 310 K and at pH 7.4 unless otherwise stated. Data collection and analysis were performed using EzSpec software by HORIBA or CLARIOstar MARS software by BMG Labtech. Further analysis and processing were performed in Microsoft Excel.
# A solution of GBM and FIM at the required concentrations were created in the appropriate media. The emission spectrum of the assay was then acquired by exciting at the designated excitation wavelength to obtain the baseline emission intensity for the assay. Aliquots of 2 M D-glucose (in the same media) were then added to give the required final glucose concentrations (e.g. 15 μL of 2 M D-glucose in 3 mL gives a final D-glucose concentration of 10 mM) and the assay allowed to reach equilibration. The emission spectra were collected after each addition of D-glucose and compared to the original baseline emission, monitoring at the typical emission maximum (Emmax), and the percentage increase or decrease recorded. Emission spectra acquired on either a Horiba Duetta fluorometer or Clariostar plus plate reader.
# The glucose responsive fluorescence emission for different combinations of glucose binding molecules (GBM) and fluorescent inhibitor molecules (FIM) at various concentrations and in various media was tested as described above. All results obtained at pH 7.4 and 298 K unless otherwise stated.
# All results obtained at pH 7.4 and 298 K unless otherwise stated.
# Table 4 provides the composition of the assay media used as the code assigned to each media as used in Tables 1 to 3.
# [4] = 20 mM D-glucose, GBM30 100 uM, FIM 10 uM, Ex 480/Emmax 520 nm, hydrogel H (amino azide dextran/PEG)
# [5] = 20 mM D-glucose, GBM39 50 uM, FIM 2 uM, Ex 470/Emmax 530 nm, hydrogel D (azido PEG star polymer)
# [6] = 50 mM D-glucose, GBM39 50 uM, FIM 2 uM, Ex 470/Emmax 530 nm, hydrogel D (azido PEG star polymer)
# [7] = 60 mM D-glucose, GBM39 50 uM, FIM 2 uM, Ex 470/Emmax 530 nm, hydrogel D (azido PEG star polymer)
# [8] = 80 mM D-glucose, GBM39 50 uM, FIM 2 uM, Ex 470/Emmax 530 nm, hydrogel D (azido PEG star polymer)
# [9] = 100 mM D-glucose, GBM39 50 uM, FIM 2 uM, Ex 470/Emmax 530 nm, hydrogel D (azido PEG star polymer)
structure (smiles),measurement,setting,value
C#CCCC(=O)N[C@@H](Cc1cn(CCOCCOCCOCCOc2ccc(CCO[C@@H]3O[C@H](CO)[C@@H](O)[C@H](O)[C@H]3O)cc2)nn1)C(=O)NCC(=O)Nc1ccc2c(c1)C(=O)OC21c2ccc(O)cc2Oc2cc(O)ccc21 [FIM1],Change in Emmax for FIM at a particular D-glucose concentration,"[1]; 20 mM D-glucose, GBM1 10 uM, FIM 1 uM, Ex 470/Emmax 530 nm, hydrogel D (azido PEG star polymer)",10%
same,Change in Emmax for FIM at a particular D-glucose concentration,"[1]; 50 mM D-glucose, GBM1 10 uM, FIM 1 uM, Ex 470/Emmax 530 nm, hydrogel D (azido PEG star polymer)",20%
same,Reversibility of emission on cycling (FIG. 5),"[1]; hydrogel D with GBM1 50 μM and FIM1 5 μM pre-incorporated, cycling 10 mM PBS / 20 mM D-glucose, 310 K, pH 7.4",shows reversibility of hydrogel
C#CCN(C)c1ccc2nc3ccc(N(C)Cc4cn(CC(CO[C@H]5O[C@@H](CO)[C@H](O)[C@@H](O)[C@@H]5O)c5ccccc5)nn4)cc3[s+]c2c1 (stereo partly drawn) [FIM52],Applied potential,"[2]; 1 mM D-glucose, GBM15 1 mM",−0.287 V
same,Current response,"[2]; 1 mM D-glucose, GBM15 1 mM",−9.11 ×10^−6 A
same,Applied potential,"[2]; 2 mM D-glucose, GBM15 1 mM",−0.258 V
same,Current response,"[2]; 2 mM D-glucose, GBM15 1 mM",−9.52 ×10^−6 A
same,Applied potential,"[2]; 10 mM D-glucose, GBM15 1 mM",−0.239 V
same,Current response,"[2]; 10 mM D-glucose, GBM15 1 mM",−10.0 ×10^−6 A
same,Applied potential,"[2]; 20 mM D-glucose, GBM15 1 mM",−0.231 V
same,Current response,"[2]; 20 mM D-glucose, GBM15 1 mM",−11.1 ×10^−6 A
same,Applied potential,"[2]; 50 mM D-glucose, GBM15 1 mM",−0.231 V
same,Current response,"[2]; 50 mM D-glucose, GBM15 1 mM",−11.4 ×10^−6 A
C#CCCC(=O)N[C@@H](CCCCNC(=O)Cn1cc(CNC(=O)c2ccc3c(c2)C(=O)OC32c3ccc(O)cc3Oc3cc(O)ccc32)nn1)C(=O)NCCOCCOCCOCCOCc1cn(CCO[C@@H]2O[C@H](CO)[C@@H](O)[C@H](O)[C@H]2O)nn1 [FIM66],Change in Emmax for FIM at a particular D-glucose concentration,"[3]; 5 mM D-glucose, GBM15 50 uM, FIM 5 uM, Ex 470/Emmax 520 nm, medium B (10 mM PBS)",250%
same,Change in Emmax for FIM at a particular D-glucose concentration,"[3]; 10 mM D-glucose, GBM15 50 uM, FIM 5 uM, Ex 470/Emmax 520 nm, medium B (10 mM PBS)",255%
same,Change in Emmax for FIM at a particular D-glucose concentration,"[3]; 20 mM D-glucose, GBM15 50 uM, FIM 5 uM, Ex 470/Emmax 520 nm, medium B (10 mM PBS)",260%
same,Change in Emmax for FIM at a particular D-glucose concentration,[1]; [4],140%
C[N+](C)(C)[C@@H](CCCCn1cc(C[C@H](NC(=O)OC[C@@H]2[C@@H]3CCC#CCC[C@@H]32)C(=O)NCCOCCOCCn2cc(CNC(=O)c3ccc4c(c3)C(=O)OC43c4ccc(O)cc4Oc4cc(O)ccc43)nn2)nn1)C(=O)NCC(CO[C@@H]1O[C@H](CO)[C@@H](O)[C@H](O)[C@H]1O)c1ccccc1.O=CO (stereo partly drawn) [FIM47],Change in Emmax for FIM at a particular D-glucose concentration,"[3]; 5 mM D-glucose, GBM15 50 μM, FIM 5 μM, medium B, Ex 470 nm, Emmax 520 nm",130%
same,Change in Emmax for FIM at a particular D-glucose concentration,"[3]; 5 mM D-glucose, GBM40 20 uM, FIM 5 uM, Ex 470/Emmax 520 nm, medium B (10 mM PBS)",265%
same,Change in Emmax for FIM at a particular D-glucose concentration,"[3]; 10 mM D-glucose, GBM15 50 μM, FIM 5 μM, medium B, Ex 470 nm, Emmax 520 nm",190%
same,Change in Emmax for FIM at a particular D-glucose concentration,"[3]; 10 mM D-glucose, GBM40 20 uM, FIM 5 uM, Ex 470/Emmax 520 nm, medium B (10 mM PBS)",410%
same,Change in Emmax for FIM at a particular D-glucose concentration,"[3]; 20 mM D-glucose, GBM15 50 μM, FIM 5 μM, medium B, Ex 470 nm, Emmax 520 nm",260%
same,Change in Emmax for FIM at a particular D-glucose concentration,"[3]; 20 mM D-glucose, GBM40 20 uM, FIM 5 uM, Ex 470/Emmax 520 nm, medium B (10 mM PBS)",555%
same,Change in Emmax for FIM at a particular D-glucose concentration,"[3]; 40 mM D-glucose, GBM15 50 μM, FIM 5 μM, medium B, Ex 470 nm, Emmax 520 nm",310%
same,Change in Emmax for FIM at a particular D-glucose concentration,"[3]; 40 mM D-glucose, GBM40 20 uM, FIM 5 uM, Ex 470/Emmax 520 nm, medium B (10 mM PBS)",710%
same,Change in Emmax for FIM at a particular D-glucose concentration,"[3]; 60 mM D-glucose, GBM15 50 μM, FIM 5 μM, medium B, Ex 470 nm, Emmax 520 nm",340%
same,Change in Emmax for FIM at a particular D-glucose concentration,"[3]; 80 mM D-glucose, GBM15 50 μM, FIM 5 μM, medium B, Ex 470 nm, Emmax 520 nm",350%
same,Change in Emmax for FIM at a particular D-glucose concentration,"[3]; 80 mM D-glucose, GBM40 20 uM, FIM 5 uM, Ex 470/Emmax 520 nm, medium B (10 mM PBS)",860%
same,Change in Emmax for FIM at a particular D-glucose concentration,[1]; [5],40%
same,Change in Emmax for FIM at a particular D-glucose concentration,[1]; [6],100%
same,Change in Emmax for FIM at a particular D-glucose concentration,[1]; [7],120%
same,Change in Emmax for FIM at a particular D-glucose concentration,[1]; [8],160%
same,Change in Emmax for FIM at a particular D-glucose concentration,[1]; [9],190%
C#CCCC(=O)NCCCC[C@H](NC(=O)[c-]1cccc1)C(=O)NCCOCCOCCOCCn1cc(-c2ccc(CCO[C@@H]3O[C@H](CO)[C@@H](O)[C@H](O)[C@H]3O)cc2)nn1.[Fe+2].c1cc[cH-]c1 [FIM38],Applied potential,"[2]; 0 mM D-glucose, GBM 0 mM",0.327 V
same,Current response,"[2]; 0 mM D-glucose, GBM 0 mM",−4.25 ×10^−6 A
same,Applied potential,"[2]; 0 mM D-glucose, GBM15 1 mM",0.280 V
same,Current response,"[2]; 0 mM D-glucose, GBM15 1 mM",−3.1 ×10^−6 A
same,Applied potential,"[2]; 1 mM D-glucose, GBM15 1 mM",0.285 V
same,Current response,"[2]; 1 mM D-glucose, GBM15 1 mM",−3.75 ×10^−6 A
same,Applied potential,"[2]; 2 mM D-glucose, GBM15 1 mM",0.300 V
same,Current response,"[2]; 2 mM D-glucose, GBM15 1 mM",−4.25 ×10^−6 A
same,Applied potential,"[2]; 3 mM D-glucose, GBM15 1 mM",0.306 V
same,Current response,"[2]; 3 mM D-glucose, GBM15 1 mM",−4.4 ×10^−6 A
same,Applied potential,"[2]; 4 mM D-glucose, GBM15 1 mM",0.310 V
same,Current response,"[2]; 4 mM D-glucose, GBM15 1 mM",−4.5 ×10^−6 A
same,Applied potential,"[2]; 5 mM D-glucose, GBM15 1 mM",0.310 V
same,Current response,"[2]; 5 mM D-glucose, GBM15 1 mM",−4.5 ×10^−6 A
same,Glucose responsive cyclic voltammetry (FIG. 10),"[2]; GBM15 1 mM and FIM38 0.5 mM in 10 mM PBS, addition of D-glucose",shows a shift in both applied potential (V) and current response (A)
O=C(CNC(=O)[C@H](Cc1cn(CCOCCOCCOCCOc2ccc(CCO[C@@H]3O[C@H](CO)[C@@H](O)[C@H](O)[C@H]3O)cc2)nn1)NC(=O)OC[C@@H]1[C@@H]2CCC#CCC[C@@H]21)Nc1ccc2c(c1)C(=O)OC21c2ccc(O)cc2Oc2cc(O)ccc21 [FIM17],Change in Emmax for FIM at a particular D-glucose concentration,[1]; [4],120%
same,Change in Emmax for FIM at a particular D-glucose concentration,[1]; [5],70%
same,Change in Emmax for FIM at a particular D-glucose concentration,[1]; [6],175%
same,Change in Emmax for FIM at a particular D-glucose concentration,[1]; [7],215%
same,Change in Emmax for FIM at a particular D-glucose concentration,[1]; [8],295%
same,Change in Emmax for FIM at a particular D-glucose concentration,[1]; [9],380%

# Source: US20250172566A1, “SACCHARIDE SENSING SYSTEMS” (CARBOMETRICS LIMITED, priority 2022, published 2025)
